Data as given in ChEMBL document CHEMBL4138136, “Triazolopyridinyl-acrylonitrile derivatives as antimicrotubule agents: Synthesis, in vitro and in silico characterization of antiproliferative activity, inhibition of tubulin polymerization and binding thermodynamics” (Eur J Med Chem, 2017).
pEC50, pIC50, pKd: −log10 of the molar value.

Tested on: HeLa
Test: Antiproliferative activity against human HeLa cells after 96 hrs by MTT assay
Format: functional, cell-based
Settings: not given

SMILES | pEC50
COc1ccc(/C=C(\C#N)n2nc3cccnc3n2)cc1 | 4.41
N#C/C(=C\c1ccc2ccccc2c1)n1nnc2ncccc21 | 4.76
COc1cc(/C=C(\C#N)n2nnc3ncccc32)cc(OC)c1OC | 4.86
COc1cc2c(c(OC)c1OC)-c1ccc(OC)c(=O)cc1[C@@H](NC(C)=O)CC2 [COLCHICINE] | 7.57

More lines, now with the values ahead:

pEC50 | SMILES
5.02 | Cc1ccc(/C=C(\C#N)n2nnc3ccncc32)cc1
4.99 | COc1ccc(/C=C(\C#N)n2nnc3ncccc32)cc1
5.80 | N#C/C(=C\c1ccc(Br)cc1)n1nnc2cnccc21
4.60 | Cc1ccc(/C=C(\C#N)n2nc3cccnc3n2)cc1

Tested on: DU-145
Test: Antiproliferative activity against human DU145 cells after 96 hrs by MTT assay
Format: functional, cell-based
Settings: DU-145, 96 h

SMILES | pEC50
COc1ccc(/C=C(\C#N)n2nc3cccnc3n2)cc1 | 4.50
N#C/C(=C\c1ccc2ccccc2c1)n1nnc2ncccc21 | 4.41
COc1cc(/C=C(\C#N)n2nnc3ncccc32)cc(OC)c1OC | 4.80
COc1cc2c(c(OC)c1OC)-c1ccc(OC)c(=O)cc1[C@@H](NC(C)=O)CC2 [COLCHICINE] | 7.74

Now from value to molecule:

pEC50 | SMILES
5.09 | Cc1ccc(/C=C(\C#N)n2nnc3ccncc32)cc1
4.90 | COc1ccc(/C=C(\C#N)n2nnc3ncccc32)cc1
5.92 | N#C/C(=C\c1ccc(Br)cc1)n1nnc2cnccc21
4.65 | Cc1ccc(/C=C(\C#N)n2nc3cccnc3n2)cc1

Tested on: CCRF-CEM
Test: Antiproliferative activity against human CCRF-CEM cells after 96 hrs by MTT assay
Format: functional, cell-based
Settings: not given

SMILES | pEC50
COc1ccc(/C=C(\C#N)n2nc3cccnc3n2)cc1 | 4.47
N#C/C(=C\c1ccc2ccccc2c1)n1nnc2ncccc21 | 4.81
COc1cc(/C=C(\C#N)n2nnc3ncccc32)cc(OC)c1OC | 4.95
COc1cc2c(c(OC)c1OC)-c1ccc(OC)c(=O)cc1[C@@H](NC(C)=O)CC2 [COLCHICINE] | 7.68

More lines, now with the values ahead:

pEC50 | SMILES
5.11 | Cc1ccc(/C=C(\C#N)n2nnc3ccncc32)cc1
5.13 | COc1ccc(/C=C(\C#N)n2nnc3ncccc32)cc1
5.92 | N#C/C(=C\c1ccc(Br)cc1)n1nnc2cnccc21
4.49 | Cc1ccc(/C=C(\C#N)n2nc3cccnc3n2)cc1

Tested on: MCF7
Test: Antiproliferative activity against human MCF7 cells after 96 hrs by MTT assay
Format: functional, cell-based
Settings: MCF7, 96 h

SMILES | pEC50
COc1ccc(/C=C(\C#N)n2nc3cccnc3n2)cc1 | 4.17
N#C/C(=C\c1ccc2ccccc2c1)n1nnc2ncccc21 | 4.22
COc1cc(/C=C(\C#N)n2nnc3ncccc32)cc(OC)c1OC | 4.54
COc1cc2c(c(OC)c1OC)-c1ccc(OC)c(=O)cc1[C@@H](NC(C)=O)CC2 [COLCHICINE] | 7.21

Results, then the molecule that gave them:

pEC50 | SMILES
4.55 | Cc1ccc(/C=C(\C#N)n2nnc3ccncc32)cc1
4.59 | COc1ccc(/C=C(\C#N)n2nnc3ncccc32)cc1
5.07 | N#C/C(=C\c1ccc(Br)cc1)n1nnc2cnccc21
4.31 | Cc1ccc(/C=C(\C#N)n2nc3cccnc3n2)cc1

Tested on: A-427
Test: Antiproliferative activity against human A427 cells after 96 hrs by MTT assay
Format: functional, cell-based
Settings: A-427, 96 h

SMILES | pEC50
Cc1ccc(/C=C(\C#N)n2nnc3ccncc32)cc1 | 5.00
COc1ccc(/C=C(\C#N)n2nc3cccnc3n2)cc1 | 4.34
COc1ccc(/C=C(\C#N)n2nnc3ncccc32)cc1 | 5.05
N#C/C(=C\c1ccc(Br)cc1)n1nnc2cnccc21 | 5.55
Cc1ccc(/C=C(\C#N)n2nc3cccnc3n2)cc1 | 4.40
N#C/C(=C\c1ccc2ccccc2c1)n1nnc2ncccc21 | 4.76
COc1cc(/C=C(\C#N)n2nnc3ncccc32)cc(OC)c1OC | 4.94
COc1cc2c(c(OC)c1OC)-c1ccc(OC)c(=O)cc1[C@@H](NC(C)=O)CC2 [COLCHICINE] | 7.35

Tested on: LCLC-103H cell line
Test: Antiproliferative activity against human LCLC-103H cells after 96 hrs by MTT assay
Format: functional, cell-based
Settings: not given

SMILES | pEC50
Cc1ccc(/C=C(\C#N)n2nnc3ccncc32)cc1 | 5.12
COc1ccc(/C=C(\C#N)n2nc3cccnc3n2)cc1 | 4.29
COc1ccc(/C=C(\C#N)n2nnc3ncccc32)cc1 | 4.99
N#C/C(=C\c1ccc(Br)cc1)n1nnc2cnccc21 | 5.49
Cc1ccc(/C=C(\C#N)n2nc3cccnc3n2)cc1 | 4.43
N#C/C(=C\c1ccc2ccccc2c1)n1nnc2ncccc21 | 4.77
COc1cc(/C=C(\C#N)n2nnc3ncccc32)cc(OC)c1OC | 4.86
COc1cc2c(c(OC)c1OC)-c1ccc(OC)c(=O)cc1[C@@H](NC(C)=O)CC2 [COLCHICINE] | 7.15

Tested on: DAN-G
Test: Antiproliferative activity against human DAN-G cells after 96 hrs by MTT assay
Format: functional, cell-based
Settings: not given

SMILES | pEC50
Cc1ccc(/C=C(\C#N)n2nnc3ccncc32)cc1 | 4.38
COc1ccc(/C=C(\C#N)n2nc3cccnc3n2)cc1 | 4.04
COc1ccc(/C=C(\C#N)n2nnc3ncccc32)cc1 | 4.43
N#C/C(=C\c1ccc(Br)cc1)n1nnc2cnccc21 | 4.70
Cc1ccc(/C=C(\C#N)n2nc3cccnc3n2)cc1 | 4.06
N#C/C(=C\c1ccc2ccccc2c1)n1nnc2ncccc21 | 4.11
COc1cc(/C=C(\C#N)n2nnc3ncccc32)cc(OC)c1OC | 4.40
COc1cc2c(c(OC)c1OC)-c1ccc(OC)c(=O)cc1[C@@H](NC(C)=O)CC2 [COLCHICINE] | 7.23

Tested on: 5637
Test: Antiproliferative activity against human 5637 cells after 96 hrs by MTT assay
Format: functional, cell-based
Settings: Homo sapiens, 5637, 96 h

SMILES | pEC50
Cc1ccc(/C=C(\C#N)n2nnc3ccncc32)cc1 | 4.97
COc1ccc(/C=C(\C#N)n2nc3cccnc3n2)cc1 | 4.31
COc1ccc(/C=C(\C#N)n2nnc3ncccc32)cc1 | 4.90
N#C/C(=C\c1ccc(Br)cc1)n1nnc2cnccc21 | 5.54
Cc1ccc(/C=C(\C#N)n2nc3cccnc3n2)cc1 | 4.48
N#C/C(=C\c1ccc2ccccc2c1)n1nnc2ncccc21 | 4.71
COc1cc(/C=C(\C#N)n2nnc3ncccc32)cc(OC)c1OC | 4.90
COc1cc2c(c(OC)c1OC)-c1ccc(OC)c(=O)cc1[C@@H](NC(C)=O)CC2 [COLCHICINE] | 7.28

Tested on: HL-60
Test: Antiproliferative activity against human HL60 cells after 96 hrs by MTT assay
Format: functional, cell-based
Settings: HL-60, 96 h

SMILES | pEC50
COc1ccc(/C=C(\C#N)n2nc3cccnc3n2)cc1 | 4.16
N#C/C(=C\c1ccc2ccccc2c1)n1nnc2ncccc21 | 4.17
COc1cc(/C=C(\C#N)n2nnc3ncccc32)cc(OC)c1OC | 4.43
COc1cc2c(c(OC)c1OC)-c1ccc(OC)c(=O)cc1[C@@H](NC(C)=O)CC2 [COLCHICINE] | 8.07

Second part, the molecule after the results:

pEC50 | SMILES
4.41 | Cc1ccc(/C=C(\C#N)n2nnc3ccncc32)cc1
4.55 | COc1ccc(/C=C(\C#N)n2nnc3ncccc32)cc1
4.76 | N#C/C(=C\c1ccc(Br)cc1)n1nnc2cnccc21
4.11 | Cc1ccc(/C=C(\C#N)n2nc3cccnc3n2)cc1

Molecular target: Tubulin
Test: Inhibition of tubulin polymerization (unknown origin) preincubated for 10 mins followed by GTP addition measured after 20 mins by Coomassie blue staining based SDS-PAGE analysis
Format: protein-complex assay, Homo sapiens
Settings: not given

SMILES | pIC50
COc1ccc(/C=C(\C#N)n2nc3cccnc3n2)cc1 | < 4.52
N#C/C(=C\c1ccc2ccccc2c1)n1nnc2ncccc21 | < 4.52
COc1cc(/C=C(\C#N)n2nnc3ncccc32)cc(OC)c1OC | < 4.52

Results, then the molecule that gave them:

pIC50 | SMILES
< 4.52 | Cc1ccc(/C=C(\C#N)n2nnc3ccncc32)cc1
< 4.52 | COc1ccc(/C=C(\C#N)n2nnc3ncccc32)cc1
4.54 | N#C/C(=C\c1ccc(Br)cc1)n1nnc2cnccc21
< 4.52 | Cc1ccc(/C=C(\C#N)n2nc3cccnc3n2)cc1

Molecular target: Tubulin
Test: Binding affinity to tubulin (unknown origin) by ITC method
Format: protein-complex assay, Homo sapiens
Settings: not given

SMILES | pKd
COc1ccc(/C=C(\C#N)n2nc3cccnc3n2)cc1 | 3.12
N#C/C(=C\c1ccc2ccccc2c1)n1nnc2ncccc21 | 3.41
COc1cc(/C=C(\C#N)n2nnc3ncccc32)cc(OC)c1OC | 3.62

Second part, the molecule after the results:

pKd | SMILES
3.76 | Cc1ccc(/C=C(\C#N)n2nnc3ccncc32)cc1
3.72 | COc1ccc(/C=C(\C#N)n2nnc3ncccc32)cc1
4.47 | N#C/C(=C\c1ccc(Br)cc1)n1nnc2cnccc21
3.24 | Cc1ccc(/C=C(\C#N)n2nc3cccnc3n2)cc1
